Assay results from article PMC4836696 (PLoS ONE, 2016).
“Also recorded” adds a separate entry of the source.

What was measured:
[1] = system: subjects with T2D taking liraglutide; assay: Clinical study Part B: pharmacodynamics (weight, glucose, HbA1c); type: in vivo, human; conditions: Part B: liraglutide alone titrated to 1.8 mg/day, mean ± SD
Excerpt: In all three Parts, to reduce the risk of gastrointestinal adverse events subjects started by taking 15 g of GSK457 daily, in 2 divided doses, and were up−titrated to 30g daily (Day 4) and then to a maximum dose of 40 g daily at Day 7. Subjects unable to tolerate doses of 30 g or 40 g were permitted to reduce their dose to tolerated levels, with a minimum tolerated dose of 15 g required to remain in the study. A unit dose of 5 g of GSK457 consisted of three capsules of oleic acid and a separate sachet of powder for each of the three powder compounds. […]
In Parts B and C, there were additional clinic visits on Days 7, 14, and 28 for safety evaluations, potential modification of dose (Days 7 and 14), and dispensing of study medications. Subjects monitored their capillary blood glucose levels twice a day using a wireless-enabled glucometer and daily weights were monitored using a wireless enabled weighing instrument (see S3 Materials and Methods for more information). […]
Venous blood samples were collected for PD and PK analysis in K^+ EDTA tubes and rapidly placed on ice until centrifuged at 4°C for 10 minutes. Plasma was stored at -70°C until analyzed. Samples for clinical chemistry and hematology were measured by the local certified laboratory. Plasma samples were analyzed for glucose, insulin and leptin by BioAgilytix Labs (Durham, NC, USA). […]

[2] = system: subjects with T2D taking liraglutide; assay: Clinical study Part B: safety and tolerability; type: in vivo, human
Excerpt: A unit dose of 5 g of GSK457 consisted of three capsules of oleic acid and a separate sachet of powder for each of the three powder compounds. The powders were mixed by the subject into 12 oz of flavored (Mio™ pomegranate/berry flavoring) water in a shaker bottle and consumed just prior to breakfast and dinner. The capsules could be taken with this drink or separately with water. The matching placebo consisted of starch and microcrystalline cellulose in identical sachets and capsules.

[3] = Clinical study Part B: plasma liraglutide pharmacokinetics
[4] = system: DIO C57BL/6NTac mice; assay: Chronic 28-day weight loss study in DIO mice; type: in vivo, mouse
[5] = system: subjects with T2D taking metformin; assay: Clinical study Part C: pharmacodynamics (weight, glucose, HbA1c); type: in vivo, human; conditions: Part C: usual metformin alone, mean ± SE
Excerpt: In all three Parts, to reduce the risk of gastrointestinal adverse events subjects started by taking 15 g of GSK457 daily, in 2 divided doses, and were up-titrated to 30g daily (Day 4) and then to a maximum dose of 40 g daily at Day 7. Subjects unable to tolerate doses of 30 g or 40 g were permitted to reduce their dose to tolerated levels, with a minimum tolerated dose of 15 g required to remain in the study. A unit dose of 5 g of GSK457 consisted of three capsules of oleic acid and a separate sachet of powder for each of the three powder compounds. […] Subjects monitored their capillary blood glucose levels twice a day using a wireless-enabled glucometer and daily weights were monitored using a wireless enabled weighing instrument (see S3 Materials and Methods for more information). […] Plasma was stored at -70°C until analyzed. Samples for clinical chemistry and hematology were measured by the local certified laboratory. Plasma samples were analyzed for glucose, insulin and leptin by BioAgilytix Labs (Durham, NC, USA). Glucose was measured using a Glucose 2300 STAT Plus Glucose Analyzer with the glucose/lactate standard, catalog number 2747 (Yellow Springs Instrument Co, OH, USA). […] An estimation approach was used where point estimates for treatment differences and corresponding confidence intervals were determined. […]

[6] = Clinical study Part C: plasma metformin pharmacokinetics; type: in vivo, human; conditions: Part C: metformin taken 1 hour before GSK457; comparative plot, no statistics
Description: All samples were shipped frozen on dry ice and stored at approximately -20 °C until analysed. […] The eluate was then further diluted with 1.00 mL of 2:98 formic acid / acetonitrile vol/vol, prior to being analyzed by HPLC with MS/MS detection.

[7] = system: patients; conditions: cited from earlier work
[8] = protocol risk table; cited from earlier work
[9] = Clinical study Part A: plasma metformin pharmacokinetics; conditions: for metformin Cmax / metformin AUC(0−10): geometric mean (CV%); for metformin Tmax: median (range)
[10] = subjects later randomized to GSK457
[11] = subjects later randomized to placebo
[12] = Part B, GSK457 group, Day 42, median (range), n=11
[13] = Part B, with GSK457, data from 1 outlier excluded
[14] = overdose, ref GLUCOPHAGE (Metformin) Package Insert
[15] = Part A healthy subjects, co-administration with GSK457
[16] = Part A, single 500 mg IR metformin, GSK457 group, Day 1 (metformin alone), n=11
[17] = Part A, single 500 mg IR metformin, GSK457 group, Day 42 (with GSK457), n=10
[18] = Part A, single 500 mg IR metformin, Placebo group, Day 1, n=4
[19] = Part A, single 500 mg IR metformin, Placebo group, Day 42, n=4

With `CCCCCCCCCCCCCCCC(=O)N[C@@H](CCC(=O)NCCCC[C@H](NC(=O)[C@H](C)NC(=O)[C@H](C)NC(=O)[C@H](CCC(N)=O)NC(=O)CNC(=O)[C@H](CCC(=O)O)NC(=O)[C@H](CC(C)C)NC(=O)[C@H](Cc1ccc(O)cc1)NC(=O)[C@H](CO)NC(=O)[C@H](CO)NC(=O)[C@@H](NC(=O)[C@H](CC(=O)O)NC(=O)[C@H](CO)NC(=O)[C@@H](NC(=O)[C@H](Cc1ccccc1)NC(=O)[C@@H](NC(=O)CNC(=O)[C@H](CCC(=O)O)NC(=O)[C@H](C)NC(=O)[C@@H](N)Cc1cnc[nH]1)[C@@H](C)O)[C@@H](C)O)C(C)C)C(=O)N[C@@H](CCC(=O)O)C(=O)N[C@@H](Cc1ccccc1)C(=O)N[C@H](C(=O)N[C@@H](C)C(=O)N[C@@H](Cc1c[nH]c2ccccc12)C(=O)N[C@@H](CC(C)C)C(=O)N[C@H](C(=O)N[C@@H](CCCNC(=N)N)C(=O)NCC(=O)N[C@@H](CCCNC(=N)N)C(=O)NCC(=O)O)C(C)C)[C@@H](C)CC)C(=O)O` [liraglutide] the “change in mean body weight during the 12-week liraglutide Stabilization phase” value [1, 10] was -1.29 kg, the “change in mean body weight during the 12-week liraglutide Stabilization phase” value [1, 11] was -2.55 kg and the “most common drug-related adverse events during the Stabilization period” value ([2]; Part B: liraglutide alone, 12 weeks, titrated to 1.8 mg/day) was “nausea, diarrhea, decreased appetite, and headache”. For the same compound, the circulating lipase/amylase concentrations ([2]; Part B: while subjects were on liraglutide, no symptoms or signs of pancreatitis, no clear differentiation GSK457 vs placebo) was “Asymptomatic elevations”, the “effect of co-administration with GSK457 on liraglutide plasma exposures” value ([3]; Part B T2D patients, all data) was “did not affect liraglutide plasma exposures; also recorded: no effect” and the “liraglutide AUC(0−t)” value ([3]; Part B, GSK457 group, Day 42 (with GSK457), geometric mean (CV%), n=11) was 1266 (79.4) ng.h/mL. The “liraglutide Tlast” value [3, 12] was 24.02 (23.8−24.3) h, the “liraglutide Tmax” value [3, 12] was 9.98 (0.8−23.8) h and the “liraglutide Tlast” value ([3]; Part B, GSK457 group, Day -1, median (range), n=12) was 23.88 (23.0−25.9) h. The “liraglutide Tlast” value ([3]; Part B, Placebo group, Day 42, median (range), n=5) was 23.80 (23.8−24.1) h, the “increase of liraglutide AUC(0−t)” value [3, 13] was 28% and the “increase of liraglutide Cmax” value [3, 13] was 22%.

In the case of `CCCCCCCC/C=C\CCCCCCCC(=O)O` [oleic acid], the “effect on endocrine hormones” value ([4]; agents dosed individually) is reported as “little effect”, the “serum chemistry, effect of single agents” value ([4]; single GRAS agent in chow) is reported as “only a small beneficial effect” and the “serum glucose vs. DIO vehicle” value ([4]; single agent in chow, p < 0.05) is reported as “lowered glucose”.

With `CN(C)C(=N)N=C(N)N` [metformin] the “change in mean body weight during the 4-week metformin Stabilization phase” value [5, 10] was -1.62 kg, the “change in mean body weight during the 4-week metformin Stabilization phase” value [5, 11] was -1.17 kg and the “effect on metformin AUC(0−10 h)” value [6] was “slight decrease”. The “effect on metformin Cmax” value [6] was “no apparent effect”, the “patients with decrease to subnormal serum vitamin B12 levels” value ([7]; human, in vivo) was “approximately 7%” and the “hypoglycemia in metformin overdose cases” value [7, 14] was “approximately 10 % of cases”. For the same compound, the “lactic acidosis in metformin overdose cases” value [7, 14] was “approximately 32%”, the “fraction of a dose that appears in the feces” value [8] was 20-30% and the “reduction of metformin systemic exposure” value ([9]; Part A healthy subjects, by GSK457) was ~ 30%. For the same compound, the “decrease of metformin AUC(0−10 h)” value [9, 15] was 32%, the “decrease of metformin Cmax” value [9, 15] was 34% and the “metformin Cmax” value ([9]; Part A healthy subjects, single 500 mg IR metformin before breakfast, Placebo group, Day 1, plasma, HPLC-MS/MS, n=4) was 682 (19.0) ng/mL. For the same compound, the “metformin AUC(0−10)” value [9, 16] was 3403 (26.4) ng.h/mL, the “metformin Tmax” value [9, 16] was 2.00 (1.00−4.00) h and the “metformin Cmax” value ([9]; Part A, single 500 mg IR metformin, GSK457 group, Day 1 (metformin alone, GSK457 started at dinner), n=11) was 576 (24.4) ng/mL. The “metformin Cmax” value ([9]; Part A, single 500 mg IR metformin, GSK457 group, Day 42 (taken together with GSK457 after 6 weeks), n=10) was 374 (31.2) ng/mL, the “metformin AUC(0−10)” value [9, 17] was 2232 (38.6) ng.h/mL and the “metformin Tmax” value [9, 17] was 2.00 (2.00−5.50) h. The “metformin AUC(0−10)” value [9, 18] was 4347 (19.1) ng.h/mL, the “metformin Tmax” value [9, 18] was 3.01 (2.00−4.03) h and the “metformin AUC(0−10)” value [9, 19] was 5082 (21.1) ng.h/mL. For the same compound, the “metformin Cmax” value [9, 19] was 860 (18.8) ng/mL and the “metformin Tmax” value [9, 19] was 4.00 (2.00−4.03) h.
